The values that follow come from PubChem BioAssay AID192 (DTP/NCI, 2004).

The test system of the experiment is BDF1 mice, B16 melanoma ip, median survival T/C. The experiment is described as follows: NCI In Vivo Anticancer Drug Screen. Data for tumor model B16 Melanoma (intraperitoneal) in B6D2F1 (BDF1) mice. The note with it: endpoint: median survival time, higher = longer survival. Put shortly: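 Antitumor activity is assessed in mice bearing a transplanted tumor, with survival or tumor size compared against vehicle-dosed controls and expressed as T/C.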

The mark [1] stands for this setting: dose: 0.75 mg/kg/injection, schedule: Q01DX009 (ip), vehicle: Klucel (hydroxypropylcellulose) (HPC).
The mark [2] stands for this setting: dose: 1.5 mg/kg/injection, schedule: Q01DX009 (ip), vehicle: Klucel (hydroxypropylcellulose) (HPC).
The mark [3] stands for this setting: dose: 50.0 mg/kg/injection, schedule: Q01DX009 (ip), vehicle: Klucel (hydroxypropylcellulose) (HPC).
Where [4] appears, read: dose: 12.5 mg/kg/injection, schedule: Q01DX009 (ip), vehicle: gum acacia.
The mark [5] stands for this setting: dose: 25.0 mg/kg/injection, schedule: Q01DX009 (ip), vehicle: gum acacia.
The mark [6] stands for this setting: dose: 100.0 mg/kg/injection, schedule: Q01DX009 (ip), vehicle: saline with Tween-80.
[7] abbreviates: dose: 200.0 mg/kg/injection, schedule: Q01DX009 (ip), vehicle: saline with Tween-80.
Setting [8] is: dose: 400.0 mg/kg/injection, schedule: Q01DX009 (ip), vehicle: saline with Tween-80.
Setting [9] is: dose: 25.0 mg/kg/injection, schedule: Q01DX009 (ip), vehicle: Klucel (hydroxypropylcellulose) (HPC).
Where [10] appears, read: dose: 25.0 mg/kg/injection, schedule: Q01DX009 (ip), vehicle: saline with Tween-80.
The mark [11] stands for this setting: dose: 50.0 mg/kg/injection, schedule: Q01DX009 (ip), vehicle: saline with Tween-80.
[12] abbreviates: dose: 400.0 mg/kg/injection, schedule: Q01DX009 (ip), vehicle: Klucel (hydroxypropylcellulose) (HPC).

Several values for one entry are separate records, joined by “and”; a condition that tells them apart may be missing. Equal entries are not always repeated. Inconclusive results and toxic doses are left out. Peptide text beside a SMILES is read from it. * marks the point of attachment. Trt = c1ccc(C(c2ccccc2)(c2ccccc2)*)cc1; Cbz = O=C(OCc1ccccc1)*; Bn = c1ccc(C*)cc1; βAla = NCCC(=O)O

With `Nc1nc(N)c2nc(CN(CCO)c3ccc(C(=O)NC(CCC(=O)O)C(=O)O)cc3)cnc2n1` (configuration not stated), the T/C is, setting by setting: (dose: 0.1 mg/kg/injection, schedule: Q01DX009 (ip), vehicle: Klucel (hydroxypropylcellulose) (HPC)) 107 % of control; (dose: 0.2 mg/kg/injection, schedule: Q01DX009 (ip), vehicle: Klucel (hydroxypropylcellulose) (HPC)) 101 % of control; (dose: 0.37 mg/kg/injection, schedule: Q01DX009 (ip), vehicle: Klucel (hydroxypropylcellulose) (HPC)) 99 % of control; under setting [1], 109 % of control; (dose: 1.0 mg/kg/injection, schedule: Q01DX009 (ip), vehicle: Klucel (hydroxypropylcellulose) (HPC)) 157 % of control; under setting [2], 97 % of control.
Consider `C=CCc1cn(C2CC(O)C(CO)O2)c(=O)[nH]c1=O` (configuration not stated), for which the T/C reads like this: (dose: 12.5 mg/kg/injection, schedule: Q01DX009 (ip), vehicle: saline) 104 % of control; (dose: 25.0 mg/kg/injection, schedule: Q01DX009 (ip), vehicle: saline) 105 % of control; (dose: 50.0 mg/kg/injection, schedule: Q01DX009 (ip), vehicle: saline) 104 % of control; (dose: 100.0 mg/kg/injection, schedule: Q01DX009 (ip), vehicle: saline) 105 % of control; (dose: 200.0 mg/kg/injection, schedule: Q01DX009 (ip), vehicle: saline) 105 % of control; (dose: 400.0 mg/kg/injection, schedule: Q01DX009 (ip), vehicle: saline) 107 % of control.
Regarding `CC(C)[NH-].CC(C)[NH-].[Cl][Pt+2][Cl]`, the T/C (dose: 12.5 mg/kg/injection, schedule: Q01DX009 (ip), vehicle: dextrose) is 155 % of control.
As to `CN(Cc1cnc2nc(N)nc(N)c2n1)c1ccc(C(=O)N[C@@H](CCC(=O)O)C(=O)O)cc1`, the T/C (dose: 0.25 mg/kg/injection, schedule: Q01DX009 (ip), vehicle: saline) was 102 % of control; the T/C (dose: 0.25 mg/kg/injection, schedule: Q01DX017 (ip), vehicle: saline) was 107 % of control; the T/C (dose: 0.37 mg/kg/injection, schedule: Q01DX009 (ip), vehicle: sodium bicarbonate) is 93 % of control and 103 % of control; the T/C (dose: 0.5 mg/kg/injection, schedule: Q01DX009 (ip), vehicle: sodium bicarbonate) was 92 % of control and 103 % of control (2×); the T/C (dose: 0.5 mg/kg/injection, schedule: Q01DX017 (ip), vehicle: saline) was 104 % of control; the T/C (dose: 0.75 mg/kg/injection, schedule: Q01DX009 (ip), vehicle: sodium bicarbonate) was 104 % of control and 105 % of control. In addition, the T/C by setting is: (dose: 1.0 mg/kg/injection, schedule: Q01DX017 (ip), vehicle: saline) 111 % of control; (dose: 1.5 mg/kg/injection, schedule: Q01DX009 (ip), vehicle: saline) 92 % of control; (dose: 1.5 mg/kg/injection, schedule: Q01DX009 (ip), vehicle: sodium bicarbonate) 98 % of control and 106 % of control; (dose: 2.0 mg/kg/injection, schedule: Q01DX017 (ip), vehicle: saline) 88 % of control; (dose: 2.0 mg/kg/injection, schedule: Q04DX005 (ip), vehicle: saline) 107 % of control; (dose: 3.0 mg/kg/injection, schedule: Q01DX009 (ip), vehicle: sodium bicarbonate) 94 % of control and 100 % of control. In addition, the T/C was 113 % of control (dose: 4.0 mg/kg/injection, schedule: Q04DX003 (ip), vehicle: saline); 109 % of control (dose: 4.0 mg/kg/injection, schedule: Q04DX005 (ip), vehicle: saline); 90 % of control (dose: 6.0 mg/kg/injection, schedule: Q01DX009 (ip), vehicle: sodium bicarbonate); 109 % of control (dose: 8.0 mg/kg/injection, schedule: Q04DX003 (ip), vehicle: saline); 104 % of control (dose: 8.0 mg/kg/injection, schedule: Q04DX005 (ip), vehicle: saline); 109 % of control (dose: 16.0 mg/kg/injection, schedule: Q04DX003 (ip), vehicle: saline). In addition, the T/C by setting is: (dose: 16.0 mg/kg/injection, schedule: Q04DX005 (ip), vehicle: saline) 97 % of control; (dose: 32.0 mg/kg/injection, schedule: Q01DX001 (ip), vehicle: saline) 121 % of control; (dose: 32.0 mg/kg/injection, schedule: Q04DX003 (ip), vehicle: saline) 106 % of control; (dose: 128.0 mg/kg/injection, schedule: Q01DX001 (ip), vehicle: saline) 123 % of control.
Take `CCNCCCOCC`: the T/C (dose: 12.5 mg/kg/injection, schedule: Q04DX003 (ip), vehicle: saline) was 104 % of control; the T/C (dose: 25.0 mg/kg/injection, schedule: Q04DX003 (ip), vehicle: saline) was 102 % of control; the T/C (dose: 50.0 mg/kg/injection, schedule: Q04DX003 (ip), vehicle: saline) is 102 % of control.
Turning to `COC(=O)C(CSCc1ccccc1)NC(=O)OCc1ccccc1` (configuration not stated), the T/C under setting [3] is 87 % of control.
Turning to `F[B-](F)(F)F`, the T/C under setting [4] is 104 % of control; the T/C under setting [5] was 114 % of control; the T/C (dose: 50.0 mg/kg/injection, schedule: Q01DX009 (ip), vehicle: gum acacia) was 117 % of control; the T/C (dose: 100.0 mg/kg/injection, schedule: Q01DX009 (ip), vehicle: gum acacia) was 105 % of control; the T/C (dose: 200.0 mg/kg/injection, schedule: Q01DX009 (ip), vehicle: gum acacia) is 107 % of control.
Take `CCC[CH2][Sn]1([CH2]CCC)[O]OC(c2ccccc2)[O]1` (configuration not stated): the T/C by setting is: (dose: 0.19 mg/kg/injection, schedule: Q01DX009 (ip), vehicle: Klucel (hydroxypropylcellulose) (HPC)) 98 % of control; (dose: 0.38 mg/kg/injection, schedule: Q01DX009 (ip), vehicle: Klucel (hydroxypropylcellulose) (HPC)) 87 % of control; under setting [1], 107 % of control; under setting [2], 102 % of control; (dose: 3.0 mg/kg/injection, schedule: Q01DX009 (ip), vehicle: Klucel (hydroxypropylcellulose) (HPC)) 101 % of control; (dose: 3.0 mg/kg/injection, schedule: Q01DX009 (ip), vehicle: saline with Tween-80) 102 % of control.
Take `CCCCNC(=O)Oc1ccc(OCc2ccccc2)cc1`: the T/C by setting is: under setting [6], 107 % of control; under setting [7], 107 % of control; under setting [8], 92 % of control.
In the case of `CCCCCC(=O)c1ccc(O)cc1O`, the T/C was 102 % of control under setting [4] and 89 % of control under setting [5].
On to `O=C(O)c1cc(S(=O)O)ccc1O`, for which the T/C by setting is: (dose: 10.0 mg/kg/injection, schedule: Q01DX009 (ip), vehicle: saline) 103 % of control; (dose: 20.0 mg/kg/injection, schedule: Q01DX009 (ip), vehicle: saline) 106 % of control; (dose: 40.0 mg/kg/injection, schedule: Q01DX009 (ip), vehicle: saline) 98 % of control.
As to `CC(=O)Nc1ccc(/C=N/NC(N)=S)cc1`, the T/C is, setting by setting: under setting [9], 102 % of control; under setting [10], 108 % of control; under setting [3], 100 % of control; under setting [11], 105 % of control; (dose: 100.0 mg/kg/injection, schedule: Q01DX009 (ip), vehicle: Klucel (hydroxypropylcellulose) (HPC)) 102 % of control; under setting [6], 100 % of control. For the same compound, the T/C by setting is: (dose: 200.0 mg/kg/injection, schedule: Q01DX009 (ip), vehicle: Klucel (hydroxypropylcellulose) (HPC)) 105 % of control; under setting [7], 98 % of control; under setting [12], 100 % of control; under setting [8], 95 % of control.
As for `COC(=O)C(CSC(c1ccccc1)(c1ccccc1)c1ccccc1)NC(=O)C(CSCc1ccccc1)NC(=O)CCNC(=O)OCc1ccccc1` (configuration not stated) ({Cbz-βAla}-Cys(Bn)-Cys(Trt)-OMe; configuration not given here), the T/C runs as follows: (dose: 12.5 mg/kg/injection, schedule: Q01DX009 (ip), vehicle: Klucel (hydroxypropylcellulose) (HPC)) 86 % of control; under setting [9], 87 % of control and 92 % of control; under setting [3], 89 % of control and 120 % of control; under setting [12], 167 % of control.
For `Cc1cc(O)c(C)c(C)c1Cl`, the T/C is, setting by setting: under setting [10], 100 % of control; under setting [11], 97 % of control; (dose: 50.0 mg/kg/injection, schedule: Q04DX003 (ip), vehicle: saline with Tween-80) 92 % of control; under setting [6], 97 % of control; (dose: 100.0 mg/kg/injection, schedule: Q04DX003 (ip), vehicle: saline with Tween-80) 95 % of control.
